From US20250222146A1, “Radiopharmaceuticals Targeting Somatostatin Receptor 2 and Uses Thereof” (RayzeBio, Inc., priority 2023, published 2025)
Numbered stars: 1 amine (or outer) side, 2 acyl side, 3 side chain; on linkers, the order of the positions; unused ones are H or OH. Square brackets hold non-standard residues; d marks the D form. Side chains are listed from the residue outwards. Peptide text beside a SMILES is read from it. * marks the point of attachment. DOTA(Lu)NH(CH2)6NHCOCH2 = O=C(CN1CCN2CCN3CCN(CC1)CC(=O)[O][Lu]([O]C(=O)C2)[O]C(=O)C3)NCCCCCCNC(=O)C*; DOTA(Lu) = O=C1CN2CCN3CCN(CC(=O)*)CCN(CC2)CC(=O)[O][Lu]([O]1)[O]C(=O)C3; X5 = O=C(CN1CCN2CCN3CCN(CC1)CC(=O)[O][Lu]([O]C(=O)C2)[O]C(=O)C3)NCC*; Ala(piperidin-4-yl) = O=C([C@H](CC1CCN([*:3])CC1)N[*:1])[*:2]; dTrp(βS-Me) = C[C@@H](c1c[nH]c2ccccc12)[C@@H](N)C(=O)O; dTrp(5-OMe) = COc1ccc2[nH]cc(C[C@@H](N)C(=O)O)c2c1; dTrp(6-Cl) = N[C@H](Cc1c[nH]c2cc(Cl)ccc12)C(=O)O; dTpi = O=C(O)[C@H]1Cc2c([nH]c3ccccc23)CN1; Phe(3-OMe) = COc1cccc(C[C@H](N)C(=O)O)c1; X2 = O=C([C@H](CCC1CNC1)N[*:1])[*:2]; 4Pal = N[C@@H](Cc1ccncc1)C(=O)O; Cha = N[C@@H](CC1CCCCC1)C(=O)O; Lys(Me) = CNCCCC[C@H](N)C(=O)O; X13 = NCCCCN(N[*:1])C(=O)[*:2]; NMehCys = CN[C@@H](CCS)C(=O)O; NMeK = CN[C@@H](CCCCN)C(=O)O; NMeDap = CN[C@@H](CN)C(=O)O; NMeS = CN[C@@H](CO)C(=O)O; Ahx = NCCCCCC(=O)O

Molecular target: SSTR2 (Homo sapiens, UniProt P30874)
Assay: SSTR binding affinity by radioligand binding competition assay ([125I]-Tyr11-Somatostatin, membrane extracts)
Conditions: radioligand competition, [125I]-Tyr11-Somatostatin 0.1 nM, membrane extracts; Ki from IC50 by Cheng Prusoff

Chain of SSTR2 (P30874 whole entry): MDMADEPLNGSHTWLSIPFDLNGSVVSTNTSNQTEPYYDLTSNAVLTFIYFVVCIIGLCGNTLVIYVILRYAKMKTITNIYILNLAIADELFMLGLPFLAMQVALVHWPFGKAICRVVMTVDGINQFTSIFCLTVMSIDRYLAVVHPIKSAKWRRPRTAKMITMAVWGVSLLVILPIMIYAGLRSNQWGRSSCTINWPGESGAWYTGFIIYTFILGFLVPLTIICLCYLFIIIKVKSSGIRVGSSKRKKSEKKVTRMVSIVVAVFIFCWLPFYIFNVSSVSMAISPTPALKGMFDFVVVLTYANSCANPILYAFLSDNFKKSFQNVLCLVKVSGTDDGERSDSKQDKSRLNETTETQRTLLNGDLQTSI

| Compound | SSTR2 Ki |
| --- | --- |
| COc1ccc2[nH]cc(C[C@H]3NC(=O)[C@H](Cc4ccc(O)cc4)NC(=O)[C@H](CCSCC(=O)NCCCCCCNC(=O)CN4CCN5CCN6CCN(CC4)CC(=O)[O][Lu]([O]C(=O)C5)[O]C(=O)C6)N(C)C(=O)[C@H](Cc4ccccc4)NC(=O)[C@H]([C@@H](C)O)NC(=O)[C@H](CC4CCNCC4)NC3=O)c2c1 [RB-0006076] (cyclo(F[NMehCys](DOTA(Lu)NH(CH2)6NHCOCH2)Y[dTrp(5-OMe)][Ala(piperidin-4-yl)]T)) | FALSE |

Same assay, conditions: radioligand competition, [125I]-Tyr11-Somatostatin 0.1 nM, membrane extracts; Ki from IC50 by Cheng Prusoff; read-out: SSTR2 Ki

| Compound | Ki |
| --- | --- |
| C[C@@H](O)[C@@H]1NC(=O)[C@H](CC2CCNCC2)NC(=O)[C@@H]([C@@H](C)c2c[nH]c3ccccc23)NC(=O)[C@H](Cc2ccc(O)cc2)NC(=O)[C@H](COCCNC(=O)CN2CCN3CCN4CCN(CC2)CC(=O)[O][Lu]([O]C(=O)C3)[O]C(=O)C4)N(C)C(=O)[C@H](Cc2ccccc2)NC1=O [RB-0006095] (cyclo(F[NMeS](X5)Y[dTrp(βS-Me)][Ala(piperidin-4-yl)]T)) | < 1 nM |
| C[C@@H](O)[C@@H]1NC(=O)[C@H](CCC2CNC2)NC(=O)[C@@H]([C@@H](C)c2c[nH]c3ccccc23)NC(=O)[C@H](Cc2ccc(O)cc2)NC(=O)[C@H](CCCCNC(=O)CN2CCN3CCN4CCN(CC2)CC(=O)[O][Lu]([O]C(=O)C3)[O]C(=O)C4)N(C)C(=O)[C@H](Cc2ccccc2)NC1=O [RB-0006128] (cyclo(F[NMeK](DOTA(Lu))Y[dTrp(βS-Me)][X2]T)) | < 1 nM |
| COc1ccc(C[C@@H]2NC(=O)[C@H](CCCCNC(=O)CN3CCN4CCN5CCN(CC3)CC(=O)[O][Lu]([O]C(=O)C4)[O]C(=O)C5)N(C)C(=O)[C@H](Cc3ccccc3)NC(=O)[C@H]([C@@H](C)O)NC(=O)[C@H](CC3CCNCC3)NC(=O)[C@@H]([C@@H](C)c3c[nH]c4ccccc34)NC2=O)cc1 [RB-0006139] (cyclo(F[NMeK](DOTA(Lu))Y(Me)[dTrp(βS-Me)][Ala(piperidin-4-yl)]T)) | 33.3 to 100 nM |
| C[C@@H](O)[C@@H]1NC(=O)[C@H](CC2CCNCC2)NC(=O)[C@@H]([C@@H](C)c2c[nH]c3ccccc23)NC(=O)[C@H](Cc2ccc(O)cc2)NC(=O)[C@H](CNC(=O)[C@H](CC(=O)O)NC(=O)CCCCCNC(=O)CN2CCN3CCN4CCN(CC2)CC(=O)[O][Lu]([O]C(=O)C3)[O]C(=O)C4)N(C)C(=O)[C@H](Cc2ccccc2)NC1=O [RB-0006158] (cyclo(F[NMeDap]([Asp-Ahx-DOTA(Lu)])Y[dTrp(βS-Me)][Ala(piperidin-4-yl)]T)) | 1 to 3.33 nM |
| C[C@@H](O)[C@@H]1NC(=O)[C@H](CC2CCNCC2)NC(=O)[C@@H]([C@@H](C)c2c[nH]c3ccccc23)NC(=O)[C@H](Cc2ccc(O)cc2)NC(=O)[C@H](CNC(=O)[C@H](CC(=O)O)NC(=O)CN2CCN3CCN4CCN(CC2)CC(=O)[O][Lu]([O]C(=O)C3)[O]C(=O)C4)N(C)C(=O)[C@H](Cc2ccccc2)NC1=O [RB-0006160] (cyclo(F[NMeDap]([Asp-DOTA(Lu)])Y[dTrp(βS-Me)][Ala(piperidin-4-yl)]T)) | 10 to 33.3 nM |
| C[C@@H](O)[C@@H]1NC(=O)[C@H](CC2CCNCC2)NC(=O)[C@@H]([C@@H](C)c2c[nH]c3ccccc23)NC(=O)[C@H](Cc2ccc(O)cc2)NC(=O)[C@H](CCCCNC(=O)CN2CCN3CCN4CCN(CC2)CC(=O)[O][Lu]([O]C(=O)C3)[O]C(=O)C4)N(C)C(=O)[C@H](CC2CCCCC2)NC1=O [RB-0006162] (cyclo([Cha][NMeK](DOTA(Lu))Y[dTrp(βS-Me)][Ala(piperidin-4-yl)]T)) | 1 to 3.33 nM |
| C[C@@H](O)[C@@H]1NC(=O)[C@H](CC2CCNCC2)NC(=O)[C@@H]([C@@H](C)c2c[nH]c3ccccc23)NC(=O)[C@H](Cc2ccc(O)cc2)NC(=O)[C@H](CCCCNC(=O)CN2CCN3CCN4CCN(CC2)CC(=O)[O][Lu]([O]C(=O)C3)[O]C(=O)C4)N(C)C(=O)[C@H](CO)NC1=O [RB-0006166] (cyclo([NMeK](DOTA(Lu))Y[dTrp(βS-Me)][Ala(piperidin-4-yl)]TS)) | 33.3 to 100 nM |
| C[C@@H](O)[C@@H]1NC(=O)[C@H](CC2CCNCC2)NC(=O)[C@@H]([C@@H](C)c2c[nH]c3ccccc23)NC(=O)[C@H](Cc2ccc(O)cc2)NC(=O)[C@H](CCCCNC(=O)CN2CCN3CCN4CCN(CC2)CC(=O)[O][Lu]([O]C(=O)C3)[O]C(=O)C4)N(C)C(=O)[C@H](Cc2ccncc2)NC1=O [RB-0006170] (cyclo([4Pal][NMeK](DOTA(Lu))Y[dTrp(βS-Me)][Ala(piperidin-4-yl)]T)) | 3.33 to 10 nM |
| CNCCCC[C@@H]1NC(=O)[C@@H]([C@@H](C)c2c[nH]c3ccccc23)NC(=O)[C@H](Cc2ccc(O)cc2)NC(=O)[C@H](CCCCNC(=O)CN2CCN3CCN4CCN(CC2)CC(=O)[O][Lu]([O]C(=O)C3)[O]C(=O)C4)N(C)C(=O)[C@H](Cc2ccccc2)NC(=O)[C@H]([C@@H](C)O)NC1=O [RB-0006174] (cyclo(F[NMeK](DOTA(Lu))Y[dTrp(βS-Me)][Lys(Me)]T)) | < 1 nM |
| C[C@@H](O)[C@@H]1NC(=O)[C@H](CC2CCNCC2)NC(=O)[C@@H](Cc2c[nH]c3cc(Cl)ccc23)NC(=O)[C@H](Cc2ccc(O)cc2)NC(=O)[C@H](CCSCC(=O)NCCCCCCNC(=O)CN2CCN3CCN4CCN(CC2)CC(=O)[O][Lu]([O]C(=O)C3)[O]C(=O)C4)N(C)C(=O)[C@H](Cc2ccccc2)NC1=O [RB-0006189] (cyclo(F[NMehCys](DOTA(Lu)NH(CH2)6NHCOCH2)Y[dTrp(6-Cl)][Ala(piperidin-4-yl)]T)) | 1 to 3.33 nM |
| COc1cccc(C[C@@H]2NC(=O)[C@H](CCCCNC(=O)CN3CCN4CCN5CCN(CC3)CC(=O)[O][Lu]([O]C(=O)C4)[O]C(=O)C5)N(C)C(=O)[C@H](Cc3ccccc3)NC(=O)[C@H]([C@@H](C)O)NC(=O)[C@H](CC3CCNCC3)NC(=O)[C@@H]([C@@H](C)c3c[nH]c4ccccc34)NC2=O)c1 [RB-0006209] (cyclo(F[NMeK](DOTA(Lu))[Phe(3-OMe)][dTrp(βS-Me)][Ala(piperidin-4-yl)]T)) | 1 to 3.33 nM |
| C[C@@H](O)[C@@H]1NC(=O)[C@H](CC2CCNCC2)NC(=O)[C@H]2Cc3c([nH]c4ccccc34)CN2C(=O)[C@H](Cc2ccc(O)cc2)NC(=O)[C@H](CCCCNC(=O)CN2CCN3CCN4CCN(CC2)CC(=O)[O][Lu]([O]C(=O)C3)[O]C(=O)C4)N(C)C(=O)[C@H](Cc2ccccc2)NC1=O [RB-0006213] (cyclo(F[NMeK](DOTA(Lu))Y[dTpi][Ala(piperidin-4-yl)]T)) | 33.3 to 100 nM |
| C[C@@H](O)[C@@H]1NC(=O)[C@H](CC2CCNCC2)NC(=O)[C@@H]([C@@H](C)c2c[nH]c3ccccc23)NC(=O)[C@H](Cc2ccc(O)cc2)NC(=O)[C@H](CNC(=O)[C@H](CCC(=O)O)NC(=O)CN2CCN3CCN4CCN(CC2)CC(=O)[O][Lu]([O]C(=O)C3)[O]C(=O)C4)N(C)C(=O)[C@H](Cc2ccccc2)NC1=O [RB-0006215] (cyclo(F[NMeDap]([Glu-DOTA(Lu)])Y[dTrp(βS-Me)][Ala(piperidin-4-yl)]T)) | 10 to 33.3 nM |
| C[C@@H](O)[C@@H]1NC(=O)N(CCCCN)NC(=O)[C@@H](Cc2c[nH]c3ccccc23)NC(=O)[C@H](Cc2ccc(O)cc2)NC(=O)[C@H](CCCCNC(=O)CN2CCN3CCN4CCN(CC2)CC(=O)[O][Lu]([O]C(=O)C3)[O]C(=O)C4)N(C)C(=O)[C@H](Cc2ccccc2)NC1=O [RB-0006217] (cyclo(F[NMeK](DOTA(Lu))Y[dW][X13]T)) | < 1 nM |
